Experimental data published in patent publication US20140243302A1, “BRIDGED BICYCLIC COMPOUNDS FOR THE TREATMENT OF BACTERIAL INFECTIONS” (priority 2011, published 2014).
In brackets after ≈: the same amount, converted by molar mass.

System: Staphylococcus aureus Smith
Assay: MIC assay, modified agar dilution (CLSI), S. aureus Smith
Type: cell-based
Conditions: Staphylococcus aureus, agar dilution, 35° C., 16-20 hr; lowest concentration that completely inhibited growth; read-out: S_aureus_Smith_WT_MIC
How it was run: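 Agar dilution per CLSI on Mueller Hinton agar (plus 5% horse blood for S. pneumoniae and E. faecium), compound 128 to 0.001 μg/mL in two-fold steps. Spots of ~1×10^4 CFU incubated at 35 °C for 16-20 hr before MIC scoring.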

SMILES | MIC [µg/mL]
COc1ccc2ncc(F)c(CCC34CCC(NCc5cnc(N6CCCC6)nc5)(CC3)CO4)c2n1 [Example 78, 1-(2-(3-Fluoro-6-methoxy-1,5-naphthyridin-4-yl)ethyl)-N-((2-(pyrrolidin-1-yl)pyrimidin-5-yl)methyl)-2-oxabicyclo[2.2.2]octan-4-amine] | 0.25 (≈ 0.508 µM)
COc1ccc2ncc(F)c(CCC34CCC(NCc5cc6ccccc6n(C)c5=O)(CC3)CO4)c2n1 [Example 79, 3-((1-(2-(3-Fluoro-6-methoxy-1,5-naphthyridin-4-yl)ethyl)-2-oxabicyclo[2.2.2]octan-4-ylamino)methyl)-1-methylquinolin-2(1H)-one] | 0.5 (≈ 0.995 µM)
COc1ccc2ncc(F)c(CCC34CCC(NCc5ccc6cc[nH]c6n5)(CC3)CO4)c2n1 [Example 80, N-((1H-Pyrrolo[2,3-b]pyridin-6-yl)methyl)-1-(2-(3-fluoro-6-methoxy-1,5-naphthyridin-4-yl)ethyl)-2-oxabicyclo[2.2.2]octan-4-amine] | 0.063 (≈ 0.136 µM)
COc1ccc2ncc(F)c(CCC34CCC(NCc5cnc6[nH]ccc6c5)(CC3)CO4)c2n1 [Example 81, N-((1H-Pyrrolo[2,3-b]pyridin-5-yl)methyl)-1-(2-(3-fluoro-6-methoxy-1,5-naphthyridin-4-yl)ethyl)-2-oxabicyclo[2.2.2]octan-4-amine] | 0.5 (≈ 1.08 µM)
COc1ccc2ncc(F)c(CCC34CCC(NCc5ccc(N6CCCC6)nc5)(CC3)CO4)c2n1 [Example 82, 1-(2-(3-Fluoro-6-methoxy-1,5-naphthyridin-4-yl)ethyl)-N-((6-(pyrrolidin-1-yl)pyridin-3-yl)methyl)-2-oxabicyclo[2.2.2]octan-4-amine] | 0.25 (≈ 0.509 µM)
COc1ccc2ncc(F)c(CCC34CCC(NCc5ccc6ccc(=O)[nH]c6n5)(CC3)CO4)c2n1 [Example 83, 7-((1-(2-(3-Fluoro-6-methoxy-1,5-naphthyridin-4-yl)ethyl)-2-oxabicyclo[2.2.2]octan-4-ylamino)methyl)-1,8-naphthyridin-2(1H)-one] | 1 (≈ 2.04 µM)
COc1ccc2ncc(F)c(CCC34CCC(NCc5ccc(N6CCCCC6)nc5)(CC3)CO4)c2n1 [Example 84, 1-(2-(3-Fluoro-6-methoxy-1,5-naphthyridin-4-yl)ethyl)-N-((6-(piperidin-1-yl)pyridin-3-yl)methyl)-2-oxabicyclo[2.2.2]octan-4-amine] | 0.25 (≈ 0.494 µM)
COc1ccc2ncc(F)c(CCC34CCC(NCc5cnc(N(C)C)nc5)(CC3)CO4)c2n1 [Example 85, 5-((1-(2-(3-Fluoro-6-methoxy-1,5-naphthyridin-4-yl)ethyl)-2-oxabicyclo[2.2.2]octan-4-ylamino)methyl)-N,N-dimethylpyrimidin-2-amine] | 0.125 (≈ 0.268 µM)
CCOC(=O)c1csc(CNC23CCC(CCc4c(F)cnc5ccc(OC)nc45)(CC2)OC3)n1 [Example 86, Ethyl 2-(((1-(2-(3-Fluoro-6-methoxy-1,5-naphthyridin-4-yl)ethyl)-2-oxabicyclo[2.2.2]octan-4-yl)amino)methyl)thiazole-4-carboxylate] | 16 (≈ 32 µM)
COc1ccc2ncc(F)c(CCC34CCC(NCc5cc6c(cc5F)OCO6)(CC3)CO4)c2n1.Cl [Example 87, 1-(2-(3-Fluoro-6-methoxy-1,5-naphthyridin-4-yl)ethyl)-N-((6-fluorobenzo[d][1,3]dioxol-5-yl)methyl)-2-oxabicyclo[2.2.2]octan-4-amine Hydrochloride] | 0.063
COc1ccc2ncc(F)c(CCC34CCC(NCc5nc6c(cc5Cl)OCC(=O)N6)(CC3)CO4)c2n1.Cl [Example 88, 7-chloro-6-(((1-(2-(3-fluoro-6-methoxy-1,5-naphthyridin-4-yl)ethyl)-2-oxabicyclo[2.2.2]octan-4-yl)amino)methyl)-2H-pyrido[3,2-b][1,4]oxazin-3(4H)-one] | 0.008
COc1ccc2ncc(F)c(CCC34CCC(NCc5cnc6c(c5)OCCN6C)(CC3)CO4)c2n1 [Example 89, 1-(2-(3-Fluoro-6-methoxy-1,5-naphthyridin-4-yl)ethyl)-N-((4-methyl-3,4-dihydro-2H-pyrido[3,2-b][1,4]oxazin-7-yl)methyl)-2-oxabicyclo[2.2.2]octan-4-amine] | 0.125 (≈ 0.253 µM)
COc1ccc2ncc(F)c(CCC34CCC(NCc5ccc6c(c5)OC(F)(F)O6)(CC3)CO4)c2n1 [Example 90, N-((2,2-Difluorobenzo[d][1,3]dioxol-5-yl)methyl)-1-(2-(3-fluoro-6-methoxy-1,5-naphthyridin-4-yl)ethyl)-2-oxabicyclo[2.2.2]octan-4-amine] | 0.125 (≈ 0.249 µM)
COc1ccc2ncc(F)c(CCC34CCC(NCc5ccc6c(c5)n(C)c(=O)n6C)(CC3)CO4)c2n1 [Example 91, 5-((1-(2-(3-Fluoro-6-methoxy-1,5-naphthyridin-4-yl)ethyl)-2-oxabicyclo[2.2.2]octan-4-ylamino)methyl)-1,3-dimethyl-1H-benzo[d]imidazol-2(3H)-one] | 16 (≈ 31.6 µM)
COc1ccc2ncc(F)c(CCC34CCC(NCc5cnn(CC(F)F)c5)(CC3)CO4)c2n1 [Example 92, N-((1-(2,2-Difluoroethyl)-1H-pyrazol-4-yl)methyl)-1-(2-(3-fluoro-6-methoxy-1,5-naphthyridin-4-yl)ethyl)-2-oxabicyclo[2.2.2]octan-4-amine] | 0.125 (≈ 0.263 µM)
COc1ccc2ncc(F)c(CCC34CCC(NCc5nn(C)cc5Cl)(CC3)CO4)c2n1 [Example 93, N-((4-Chloro-1-methyl-1H-pyrazol-3-yl)methyl)-1-(2-(3-fluoro-6-methoxy-1,5-naphthyridin-4-yl)ethyl)-2-oxabicyclo[2.2.2]octan-4-amine] | 16 (≈ 34.8 µM)
COc1ccc2ncc(F)c(CCC34CCC(NCc5cn(C)c(=O)n(C)c5=O)(CC3)CO4)c2n1 [Example 94, 5-((1-(2-(3-Fluoro-6-methoxy-1,5-naphthyridin-4-yl)ethyl)-2-oxabicyclo[2.2.2]octan-4-ylamino)methyl)-1,3-dimethylpyrimidine-2,4(1H,3H)-dione] | > 16
COc1ccc2ncc(F)c(CCC34CCC(NCc5ccc(OC(F)F)c(OC)c5)(CC3)CO4)c2n1 [Example 95, N-(4-(Difluoromethoxy)-3-methoxybenzyl)-1-(2-(3-fluoro-6-methoxy-1,5-naphthyridin-4-yl)ethyl)-2-oxabicyclo[2.2.2]octan-4-amine] | 0.5 (≈ 0.966 µM)
COc1ccc2ncc(F)c(CCC34CCC(NCc5cc6c(cn5)OCC(=O)N6)(CC3)CO4)c2n1 [Example 96, 7-(((1-(2-(3-Fluoro-6-methoxy-1,5-naphthyridin-4-yl)ethyl)-2-oxabicyclo[2.2.2]octan-4-yl)amino)methyl)-1H-pyrido[3,4-b][1,4]oxazin-2(3H)-one] | 0.031 (≈ 0.0628 µM)
COc1ccc2ncc(F)c(CCC34CCC(NCc5nc6ccccc6[nH]c5=O)(CC3)CO4)c2n1 [Example 97, 3-(((1-(2-(3-Fluoro-6-methoxy-1,5-naphthyridin-4-yl)ethyl)-2-oxabicyclo[2.2.2]octan-4-yl)amino)methyl)quinoxalin-2(1H)-one] | 1 (≈ 2.04 µM)
COc1ccc2ncc(F)c(CCC34CCC(NCc5nc6c(cc5F)OCC(=O)N6)(CC3)CO4)c2n1 [Example 98, 7-Fluoro-6-(((1-(2-(3-fluoro-6-methoxy-1,5-naphthyridin-4-yl)ethyl)-2-oxabicyclo[2.2.2]octan-4-yl)amino)methyl)-2H-pyrido[3,2-b][1,4]oxazin-3(4H)-one] | 0.016 (≈ 0.0313 µM)
COc1ccc2ncc(F)c(CCC34CCC(NCc5ccc6c(n5)NC(=O)C(C)(C)O6)(CC3)CO4)c2n1.Cl [Example 99, 6-((1-(2-(3-Fluoro-6-methoxy-1,5-naphthyridin-4-yl)ethyl)-2-oxabicyclo[2.2.2]octan-4-ylamino)methyl)-2,2-dimethyl-2H-pyrido[3,2-b][1,4]oxazin-3(4H)-one] | 0.25
COc1ccc2ncc(F)c(CCC34CCC(NCc5ccc6c(n5)N(C)C(=O)CO6)(CC3)CO4)c2n1 [Example 101, 6-((1-(2-(3-Fluoro-6-methoxy-1,5-naphthyridin-4-yl)ethyl)-2-oxabicyclo[2.2.2]octan-4-ylamino)methyl)-4-methyl-2H-pyrido[3,2-b][1,4]oxazin-3(4H)-one] | 2 (≈ 3.94 µM)
COc1ccc2ncc(F)c(CCC34CCC(NCc5cc6cc(F)ccc6n(C)c5=O)(CC3)CO4)c2n1 [Example 102, 6-Fluoro-3-((1-(2-(3-fluoro-6-methoxy-1,5-naphthyridin-4-yl)ethyl)-2-oxabicyclo[2.2.2]octan-4-ylamino)methyl)-1-methylquinolin-2(1H)-one] | 2 (≈ 3.84 µM)
COc1ccc2ncc(F)c(CCC34CCC(NCc5c(OC)c6ccccc6n(C)c5=O)(CC3)CO4)c2n1 [Example 103, 3-((1-(2-(3-Fluoro-6-methoxy-1,5-naphthyridin-4-yl)ethyl)-2-oxabicyclo[2.2.2]octan-4-ylamino)methyl)-4-methoxy-1-methylquinolin-2(1H)-one] | 4 (≈ 7.51 µM)
COc1ccc2ncc(F)c(CCC34CCC(NCc5cc6ccc(Cl)cc6n(C)c5=O)(CC3)CO4)c2n1 [Example 104, 7-Chloro-3-((1-(2-(3-fluoro-6-methoxy-1,5-naphthyridin-4-yl)ethyl)-2-oxabicyclo[2.2.2]octan-4-ylamino)methyl)-1-methylquinolin-2(1H)-one] | > 8
COc1ccc2ncc(F)c(CCC34CCC(NCc5cc6ccc(F)cc6n(C)c5=O)(CC3)CO4)c2n1 [Example 105, 7-Fluoro-3-((1-(2-(3-fluoro-6-methoxy-1,5-naphthyridin-4-yl)ethyl)-2-oxabicyclo[2.2.2]octan-4-ylamino)methyl)-1-methylquinolin-2(1H)-one] | 2 (≈ 3.84 µM)
COc1ccc2ncc(F)c(CCC34CCC(NCc5cc6c(Cl)cccc6n(C)c5=O)(CC3)CO4)c2n1 [Example 106, 5-Chloro-3-((1-(2-(3-fluoro-6-methoxy-1,5-naphthyridin-4-yl)ethyl)-2-oxabicyclo[2.2.2]octan-4-ylamino)methyl)-1-methylquinolin-2(1H)-one] | 1 (≈ 1.86 µM)
COc1ccc2ncc(F)c(CCC34CCC(NCc5ccc6oc(=O)[nH]c6n5)(CC3)CO4)c2n1 [Example 107, 5-((1-(2-(3-Fluoro-6-methoxy-1,5-naphthyridin-4-yl)ethyl)-2-oxabicyclo[2.2.2]octan-4-ylamino)methyl)oxazolo[4,5-b]pyridin-2(3H)-one] | 32 (≈ 66.7 µM)
